Measured values from patent US11254686B1 (Corvus Pharmaceuticals, Inc., priority 2017, dated 2022).
pIC50: −log10 of the molar value.

Assays:
adenosine A2B receptor = adenosine A2B receptor (Homo sapiens (Human), UniProt P29275); experiment: Adenosine receptor activity assay (Table 1), A2B activity; type: biochemical; conditions: for pIC50: read-out: Ave A2B cAMP IC50
adenosine A2A receptor = adenosine A2A receptor (Homo sapiens (Human), UniProt P29274); experiment: Adenosine receptor activity assay (Table 1), A2A activity; type: biochemical; conditions: read-out: Ave A2A cAMP IC50
Sequence of adenosine A2A receptor (P29274 whole entry): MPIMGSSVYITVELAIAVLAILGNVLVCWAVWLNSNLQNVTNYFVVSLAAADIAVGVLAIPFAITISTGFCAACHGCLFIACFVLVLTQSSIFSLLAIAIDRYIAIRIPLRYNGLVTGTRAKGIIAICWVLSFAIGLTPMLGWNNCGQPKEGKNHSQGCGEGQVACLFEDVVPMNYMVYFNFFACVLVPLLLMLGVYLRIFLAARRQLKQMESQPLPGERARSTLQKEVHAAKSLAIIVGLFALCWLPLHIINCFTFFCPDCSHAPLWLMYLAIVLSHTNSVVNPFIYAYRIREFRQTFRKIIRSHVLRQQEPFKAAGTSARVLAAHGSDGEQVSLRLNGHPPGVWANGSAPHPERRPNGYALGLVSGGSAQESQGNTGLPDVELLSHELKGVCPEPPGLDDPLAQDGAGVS

[1] = A2A activity to A2B activity (A2A/A2B)
[2] = A2A activity to the A2B activity, A2A/A2B

Sequence of adenosine A2B receptor (P29275 whole entry): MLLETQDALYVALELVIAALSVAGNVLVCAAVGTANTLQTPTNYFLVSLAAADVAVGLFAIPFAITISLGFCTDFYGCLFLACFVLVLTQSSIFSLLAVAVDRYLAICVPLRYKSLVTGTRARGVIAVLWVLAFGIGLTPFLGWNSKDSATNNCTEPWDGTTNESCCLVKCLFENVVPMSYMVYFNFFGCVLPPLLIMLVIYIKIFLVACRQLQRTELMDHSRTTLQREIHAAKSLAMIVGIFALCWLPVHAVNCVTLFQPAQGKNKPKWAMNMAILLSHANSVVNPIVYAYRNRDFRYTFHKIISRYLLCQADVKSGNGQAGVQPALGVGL

| SMILES | Ratio (adenosine A2B receptor; [1]) | pIC50 (adenosine A2B receptor) | pIC50 (adenosine A2A receptor) | Ratio (adenosine A2B receptor; [2]) |
| --- | --- | --- | --- | --- |
| CC(C)(Nc1nc(C(=O)N2CCCC2)c2sccc2n1)c1cccnc1 [Example Z112, (2-((2-(Pyridin-3-yl)propan-2-yl)amino)thieno[3,2-d]pyrimidin-4-yl)(pyrrolidin-1-yl)methanone] | 7.09 | 6.30 to 7.00 | < 6.30 |  |
| CO[C@@H]1CCN(C(=O)c2nc(N[C@@H](C)c3cccnc3)nc3cc(C)sc23)C1 [Example Z351, ((R)-3-Methoxypyrrolidin-1-yl)(6-methyl-2-(((S)-1-(pyridin-3-yl)ethyl)amino)thieno[3,2-d]pyrimidin-4-yl)methanone] | 10.17 | > 8.00 | 7.00 to 7.30 |  |
| C[C@H](Nc1nc(C(=O)NCCN2CCCC2)c2sccc2n1)c1cncc(F)c1 [Example Z357, (S)-2-((1-(5-Fluoropyridin-3-yl)ethyl)amino)-N-(2-(pyrrolidin-1-yl)ethyl)thieno[3,2-d]pyrimidine-4-carboxamide] | 3.03 | < 6.30 | < 6.30 |  |
| COc1ccc(CNc2nc(C(=O)NCc3cccnc3)c3sccc3n2)cn1 [Example Z436, 2-(((6-Methoxypyridin-3-yl)methyl)amino)-N-(pyridin-3-ylmethyl)thieno[3,2-d]pyrimidine-4-carboxamide] |  | < 6.30 | 6.30 to 7.00 | 0.15 |
| C[C@H](Nc1nc(C(=O)N2CCC[C@@H]2CO)c2sccc2n1)c1cccnc1 [Example Z46, ((R)-2-(Hydroxymethyl)pyrrolidin-1-yl)(2-(((S)-1-(pyridin-3-yl)ethyl)amino)thieno[3,2-d]pyrimidin-4-yl)methanone] | 30.80 | 6.30 to 7.00 | < 6.30 |  |
| O=C(NCc1cccnn1)c1nc(NCc2cccnn2)nc2ccsc12 [Example Z35, N-(Pyridazin-3-ylmethyl)-2-((pyridazin-3-ylmethyl)amino)thieno[3,2-d]pyrimidine-4-carboxamide] | 1.00 | < 6.30 | < 6.30 |  |
| CC(=O)N[C@@H]1CCN(C(=O)c2nc(NCc3cncc(F)c3)nc3ccsc23)C1 [Example Z318, (R)—N-(1-(2-(((5-Fluoropyridin-3-yl)methyl)amino)thieno[3,2-d]pyrimidine-4-carbonyl)pyrrolidin-3-yl)acetamide] | 17.41 | < 6.30 | < 6.30 |  |
| O=C(c1nc(NCCn2ccnc2)nc2ccsc12)N1CCCC1 [Example Z273, (2-((2-(1H-Imidazol-1-yl)ethyl)amino)thieno[3,2-d]pyrimidin-4-yl)(pyrrolidin-1-yl)methanone] | 2.15 | < 6.30 | < 6.30 |  |
| C[C@H](Nc1nc(C(=O)NC2CN(C(=O)C(C)(C)C)C2)c2sccc2n1)c1cncc(F)c1 [Example Z545, (S)-2-((1-(5-Fluoropyridin-3-yl)ethyl)amino)-N-(1-pivaloylazetidin-3-yl)thieno[3,2-d]pyrimidine-4-carboxamide] |  | 6.30 to 7.00 | 6.30 to 7.00 |  |
| C[C@H](Nc1nc(C(=O)N2CC[C@@H](O)C2)c2sccc2n1)c1ccnc(F)c1 [Example Z408, (2-(((S)-1-(2-Fluoropyridin-4-yl)ethyl)amino)thieno[3,2-d]pyrimidin-4-yl)((R)-3-hydroxypyrrolidin-1-yl)methanone] |  | 7.00 to 7.30 | < 6.30 | 6.69 |
| CC(=O)N[C@@H]1CCN(C(=O)c2nc(N[C@@H](C)c3cccnc3)nc3ccsc23)C1 [Example Z316, N—((R)-1-(2-(((S)-1-(Pyridin-3-yl)ethyl)amino)thieno[3,2-d]pyrimidine-4-carbonyl)pyrrolidin-3-yl)acetamide] | 2.06 | < 6.30 | < 6.30 |  |
| O=C(c1nc(NCc2cncnc2)nc2ccsc12)N1CCCC1 [Example Z5, (2-((Pyrimidin-5-ylmethyl)amino)thieno[3,2-d]pyrimidin-4-yl)(pyrrolidin-1-yl)methanone] | 18.06 | 6.30 to 7.00 | < 6.30 |  |
| Cc1cc2nc(N[C@@H](C)c3cncc(F)c3)nc(C(=O)N3CC(CN(C)C)C3)c2s1 [Example Z502, (S)-(3-((Dimethylamino)methyl)azetidin-1-yl)(2-((1-(5-fluoropyridin-3-yl)ethyl)amino)-6-methylthieno[3,2-d]pyrimidin-4-yl)methanone] |  | 7.30 to 8.00 | 7.00 to 7.30 | 4.89 |
| COc1ncccc1CNC(=O)c1nc(N[C@@H](C)c2ccccn2)nc2ccsc12 [Example Z449, (S)—N-((2-Methoxypyridin-3-yl)methyl)-2-((1-(pyridin-2-yl)ethyl)amino)thieno[3,2-d]pyrimidine-4-carboxamide] |  | < 6.30 | < 6.30 | 0.91 |
| C[C@H](Nc1nc(C(=O)NCCc2ccc(NC(=O)OC(C)(C)C)cc2)c2sccc2n1)c1cncc(F)c1 [Example Z482, tert-Butyl (S)-(4-(2-(2-((1-(5-fluoropyridin-3-yl)ethyl)amino)thieno[3,2-d]pyrimidine-4-carboxamido)ethyl)phenyl)carbamate] |  | 6.30 to 7.00 | < 6.30 | 5.32 |
| COc1ccc(CNC(=O)c2nc(NCc3cccc(F)c3)nc3ccsc23)cn1 [Example Z82, 2-((3-Fluorobenzyl)amino)-N-((6-methoxypyridin-3-yl)methyl)thieno[3,2-d]pyrimidine-4-carboxamide] | 1.03 | 7.00 to 7.30 | 7.00 to 7.30 |  |
| C[C@H](Nc1nc(C(=O)NCCS(C)(=O)=O)c2sccc2n1)c1ccccn1 [Example Z215, (S)—N-(2-(Methylsulfonyl)ethyl)-2-((1-(pyridin-2-yl)ethyl)amino)thieno[3,2-d]pyrimidine-4-carboxamide] | 2.95 | 6.30 to 7.00 | 6.30 to 7.00 |  |
| C[C@H](Nc1nc(C(=O)NC[C@H]2CCCN2C(=O)OC(C)(C)C)c2sccc2n1)c1ccccn1 [Example Z228, tert-Butyl (R)-2-((2-(((S)-1-(pyridin-2-yl)ethyl)amino)thieno[3,2-d]pyrimidine-4-carboxamido)methyl)pyrrolidine-1-carboxylate] | 2.80 | < 6.30 | < 6.30 |  |
| C[C@H](Nc1nc(C(=O)Nc2ccccc2)c2sccc2n1)c1ccccn1 [Example Z303, (S)—N-Phenyl-2-((1-(pyridin-2-yl)ethyl)amino)thieno[3,2-d]pyrimidine-4-carboxamide] | 3.08 | 7.00 to 7.30 | 6.30 to 7.00 |  |
| C[C@H](Nc1nc(C(=O)N2CC(C(N)=O)C2)c2sccc2n1)c1cncc(F)c1 [Example Z563, (S)-1-(2-((1-(5-Fluoropyridin-3-yl)ethyl)amino)thieno[3,2-d]pyrimidine-4-carbonyl)azetidine-3-carboxamide] |  | 7.30 to 8.00 | < 6.30 | 16.87 |
| Cc1cc2nc(N[C@@H](C)c3cccnc3)nc(C(=O)NC[C@@H]3CCOC3)c2s1 [Example Z387, 6-Methyl-2-(((S)-1-(pyridin-3-yl)ethyl)amino)-N—(((S)-tetrahydrofuran-3-yl)methyl)thieno[3,2-d]pyrimidine-4-carboxamide] | 20.10 | 7.00 to 7.30 | < 6.30 |  |
| C[C@H](Nc1nc(C(=O)N2CC(CN(C)C(=O)OC(C)(C)C)C2)c2sccc2n1)c1cncc(F)c1 [Example Z525, tert-Butyl (S)-((1-(2-((1-(5-Fluoropyridin-3-yl)ethyl)amino)thieno[3,2-d]pyrimidine-4-carbonyl)azetidin-3-yl)methyl)(methyl)carbamate] |  | 7.00 to 7.30 | 6.30 to 7.00 | 3.05 |
| C[C@H](Nc1nc(C(=O)N[C@H]2C[C@H](O)C2)c2sccc2n1)c1cncc(Cl)c1 [Example Z306, 2-(((S)-1-(5-Chloropyridin-3-yl)ethyl)amino)-N-((1r,3S)-3-hydroxycyclobutyl)thieno[3,2-d]pyrimidine-4-carboxamide] | 40.62 | 7.30 to 8.00 | < 6.30 |  |
| Cc1cc2nc(N[C@@H](C)c3cncc(F)c3)nc(C(=O)N3CC(N(C)C(=O)OC(C)(C)C)C3)c2s1 [Example Z484, tert-Butyl (S)-(1-(2-((1-(5-fluoropyridin-3-yl)ethyl)amino)-6-methylthieno[3,2-d]pyrimidine-4-carbonyl)azetidin-3-yl)(methyl)carbamate] |  | 7.30 to 8.00 | 6.30 to 7.00 | 4.16 |
| COCCNC(=O)c1nc(NCc2cnccn2)nc2ccsc12 [Example Z157, N-(2-Methoxyethyl)-2-((pyrazin-2-ylmethyl)amino)thieno[3,2-d]pyrimidine-4-carboxamide] | 3.17 | < 6.30 | < 6.30 |  |
| C[C@H](Nc1nc(C(=O)N2CC[C@@H](N)C2)c2sccc2n1)c1cccnc1 [Example Z366, ((R)-3-Aminopyrrolidin-1-yl)(2-(((S)-1-(pyridin-3-yl)ethyl)amino)thieno[3,2-d]pyrimidin-4-yl)methanone] | 1.86 | < 6.30 | < 6.30 |  |
| COc1ccc(CNc2nc(C(=O)NC3CCC3)c3sccc3n2)cn1 [Example Z434, N-Cyclobutyl-2-(((6-methoxypyridin-3-yl)methyl)amino)thieno[3,2-d]pyrimidine-4-carboxamide] |  | < 6.30 | 7.00 to 7.30 | 0.08 |
| COc1ccc(Oc2cc(CNC(=O)c3nc(N[C@@H](C)c4cncc(F)c4)nc4ccsc34)ccn2)cc1 [Example Z398, (S)-2-((1-(5-Fluoropyridin-3-yl)ethyl)amino)-N-((2-(4-methoxyphenoxy)pyridin-4-yl)methyl)thieno[3,2-d]pyrimidine-4-carboxamide] | 2.82 | 6.30 to 7.00 | 6.30 to 7.00 |  |
| COCC(Nc1nc(C(=O)NC2CC2)c2sccc2n1)c1cccnc1 (centres unmarked) [Example Z202, N-Cyclopropyl-2-((2-methoxy-1-(pyridin-3-yl)ethyl)amino)thieno[3,2-d]pyrimidine-4-carboxamide] | 3.91 | 7.30 to 8.00 | 7.00 to 7.30 |  |
